One experiment concerns Escherichia coli DC2. Put plainly: Antibiotic activity in vitro, agar dilution method in DST agar (MIC). The class given is cell-based. The text has this: (§1) A. Die antibiotische Aktivität der Testverbindungen in vitro wurde durch die Agarverdünnungsmethode nach Ericsson, H.M. und Sherris, S.C., 1971, Acta Path. Microb. Scand. Section B, Suppl. No. 217, Bd. 1-90, in DST Agar ermittelt. Die gefundenen, das Wachstum der Testorganismen noch hemmenden Minimalkonzentrationen (MIC = minimum inhibiting concentrations) werden in Mikrogramm pro Milliliter (µg/ml) für die geprüften Verbindungen in der Tabelle 1 angegeben.
(In agar dilution the substance is mixed into plates at graded concentrations.)

In experiment [1] the test system is Klebsiella pneumoniae 372. The description is as above. The class given is cell-based.
Description: as §1

Another experiment concerns Neisseria meningitidis. The experiment is described as above. The experiment is classed as cell-based.
Description: as §1

The subject of experiment [2] is Streptococcus pyogenes Aronson. The description is as above. The experiment is classed as cell-based.
Description: as §1

In a further experiment the test system is Escherichia coli 205. Kind of experiment: Chemotherapeutic activity in vivo against systemic infection in mice (ED50). Set-up: species or system weiblichen SPF, MF2 Mäusen. The source says:
(§2) B. Die chemotherapeutsche Wirksamkeit in vivo gegen systemische Infektionen in weiblichen SPF, MF2 Mäusen wurde nach der Methode von Zak, 0., et al., 1979, Drugs Exptl. Clin. Res. 5, 45.59, ermittelt. Die gefundenen ED50 -Werte in Milligramm Substanz pro Kilogramm Maus (mg/kg) gegen eine Anzahl von Mikroorganismen werden für die oral (p.o.) oder subcutan (s.c.) applizierten Testverbindungen in der Tabelle 2 angegeben.

Experiment [3] deals with Klebsiella pneumoniae 327. The experiment is described as above. Set-up: species or system weiblichen SPF, MF2 Mäusen. As to conditions: po.
Description: as §2

For the next experiment, the system named is Proteus mirabilis 774. The description is as above. As to conditions: po. Set-up: species or system weiblichen SPF, MF2 Mäusen.
Description: as §2

For experiment [4], the system named is Staphylococcus aureus 10 B. The description is as above. On the set-up: species or system weiblichen SPF, MF2 Mäusen.
Description: as §2

Structures are written as SMILES. Values after ≈ are worked out from the molar mass of the structure shown.

For orientation: MIC means the lowest concentration that inhibits growth of the organism. As usually defined, the ED50 is the midpoint of the dose-response relation. The low end stands for an effect at a small dose, the high end for a need for a large dose. With `COC1=C(C(=O)O)N2C(=O)[C@@H](NC(=O)[C@H](N)c3ccc(O)c(NS(C)(=O)=O)c3)[C@H]2SC1` [Verbindung 1, 7ß-[D-2-Amino-2-(3-methylsulfonylamino-4-hydroxyphenyl)-acetylamino]-3-methoxy-ceph-3-em-4-carbonsäure], the minimum inhibitory concentration (MIC) with Escherichia coli DC2 came to 0.5 µg/mL (≈ 1.06 µM); in experiment [1] it was 2 µg/mL (≈ 4.23 µM); with Neisseria meningitidis, 1 µg/mL (≈ 2.12 µM); in experiment [2], 0.1 µg/mL (≈ 0.212 µM). The ED50 turned out to be 5 mg/kg in the experiment with Escherichia coli 205 (po); 6 mg/kg in the experiment on Escherichia coli 205 (sc); 7 mg/kg in experiment [3]; 22 mg/kg in the experiment on Proteus mirabilis 774; 1.5 mg/kg in experiment [4] (po); 3 mg/kg in experiment [4] (sc).
Turning to `CS(=O)(=O)Nc1cc([C@@H](N)C(=O)N[C@@H]2C(=O)N3C(C(=O)O)=CCS[C@H]23)ccc1O` [Verbindung 2, 7ß-[D-2-Amino-2-(3-methylsulfQnylamino-4-hydroxyphenyl)-acetylamino]-ceph-3-em-4-carbonsäure], the minimal inhibitory concentration (MIC) amounted to 4 µg/mL (≈ 9.04 µM) in the experiment on Escherichia coli DC2, 4 µg/mL (≈ 9.04 µM) in experiment [1], 8 µg/mL (≈ 18.1 µM) against Neisseria meningitidis and 4 µg/mL (≈ 9.04 µM) in experiment [2]. Further, the ED50 was found to be 2.2 mg/kg in the experiment with Escherichia coli 205 (po); 3 mg/kg in experiment [3]; 22 mg/kg in the experiment with Proteus mirabilis 774; 1.5 mg/kg in experiment [4] (po); 3 mg/kg in experiment [4] (sc).
Take `CS(=O)(=O)Nc1cc([C@@H](N)C(=O)N[C@@H]2C(=O)N3C(C(=O)O)=C(Cl)CS[C@H]23)ccc1O` [Verbindung 3, 7ß-[D-2-Amino-2-(3-methylsulfonylamino-4-hydroxyphenyl)-acetylamino]-3-chlor-ceph-3-em-4-carbonsäure]: the MIC with Escherichia coli DC2 came out at 0.5 µg/mL (≈ 1.05 µM); in experiment [1] it was 1 µg/mL (≈ 2.1 µM); with Neisseria meningitidis, 0.5 µg/mL (≈ 1.05 µM); in experiment [2], 0.5 µg/mL (≈ 1.05 µM). For the same compound, the median effective dose (ED50) with Escherichia coli 205 (po) amounted to 2 mg/kg; in the experiment on Escherichia coli 205 (sc), 3 mg/kg; in experiment [3], 3 mg/kg; in the experiment on Proteus mirabilis 774 it was 4 mg/kg; in experiment [4] (po), 4 mg/kg; in experiment [4] (sc), 10 mg/kg.
As for `CCS(=O)(=O)Nc1cc([C@@H](N)C(=O)N[C@@H]2C(=O)N3C(C(=O)O)=CCS[C@H]23)ccc1O` [Verbindung 4, 7ß-[D-2-Amino-2-(3-äthylsulfonylamino-4-hydroxyphenyl)-acetylamino]-ceph-3-em-4-carbonsäure], the MIC with Escherichia coli DC2 turned out to be 4 µg/mL (≈ 8.76 µM); in experiment [1], 4 µg/mL (≈ 8.76 µM); against Neisseria meningitidis, 4 µg/mL (≈ 8.76 µM); in experiment [2], 1 µg/mL (≈ 2.19 µM). For the same compound, the ED50 with Escherichia coli 205 (po) came out at 4.5 mg/kg; in the experiment with Escherichia coli 205 (sc), 3 mg/kg; in experiment [3], 1.4 mg/kg; in the experiment on Proteus mirabilis 774, 30 mg/kg; in experiment [4] (po), 1.5 mg/kg; in experiment [4] (sc), 3 mg/kg.
As for `CCS(=O)(=O)Nc1cc([C@@H](N)C(=O)N[C@@H]2C(=O)N3C(C(=O)O)=C(Cl)CS[C@H]23)ccc1O` [Verbindung 5, 7ß-[D-2-Amino-2-(3-äthylsulfonylamino-4-hydroxyphenyl)-acetylamino]-3-chlor-ceph-3-em-4-carbonsäure], the minimum inhibitory concentration (MIC) with Escherichia coli DC2 turned out to be 2 µg/mL (≈ 4.07 µM); in experiment [1], 1 µg/mL (≈ 2.04 µM); against Neisseria meningitidis, 0.1 µg/mL (≈ 0.204 µM); in experiment [2], 0.5 µg/mL (≈ 1.02 µM). Also, the ED50 turned out to be 4.5 mg/kg in the experiment with Escherichia coli 205 (po); 3 mg/kg in the experiment on Escherichia coli 205 (sc); 1.4 mg/kg in experiment [3]; 30 mg/kg with Proteus mirabilis 774; 7 mg/kg in experiment [4] (po); 10 mg/kg in experiment [4] (sc).
On to `CCS(=O)(=O)Nc1cc([C@@H](N)C(=O)N[C@@H]2C(=O)N3C(C(=O)O)=C(OC)CS[C@H]23)ccc1O` [Verbindung 6, 7ß-[D-2-Amino-2-(3-äthylsulfonylamino-4-hydroxyphenyl)-acetylamino]-3-methoxy-ceph-3-em-4-carbonsäure], for which the minimum inhibitory concentration (MIC) in the experiment with Escherichia coli DC2 came out at 2 µg/mL (≈ 4.11 µM); in experiment [1] it was 16 µg/mL (≈ 32.9 µM); with Neisseria meningitidis it was 0.1 µg/mL (≈ 0.206 µM); in experiment [2] it was 0.5 µg/mL (≈ 1.03 µM). For the same compound, the ED50 in the experiment on Escherichia coli 205 (po) came to 6 mg/kg; in the experiment with Escherichia coli 205 (sc), 8 mg/kg; in experiment [3], 10 mg/kg; with Proteus mirabilis 774, 30 mg/kg; in experiment [4] (po), 6 mg/kg; in experiment [4] (sc) it was 15 mg/kg.

These data come from patent publication EP0046734A2, “Aminohydroxyphenyl derivatives of cephalosporins, process for their preparation and pharmaceutical compositions containing them” (CIBA-GEIGY AG, priority 1980, dated 1982).
